Assays:
[1] = solubility and dissolution of diluents in water; format: physicochemical; settings: lactose compared with mannitol
[2] = Windholz et al., 1976; cited from earlier work

With OC[C@H]1O[C@@H](O[C@H]2[C@H](O)[C@@H](O)C(O)O[C@@H]2CO)[C@H](O)[C@@H](O)[C@H]1O (some centres unmarked) [lactose] the rate of dissolution [1] was “slower rate than mannitol”.
For OC[C@@H](O)[C@@H](O)[C@H](O)[C@H](O)CO [mannitol], the “solubility (amount of cold water needed to dissolve)” value [2] is listed as 5.5 mL.

Source: patent publication US20130252916A1, “ORAMUCOSAL PHARMACEUTICAL DOSAGE FORM” (UNIVERSITY OF THE WITWATERSRAND, JOHANNESBURG, priority 2005, published 2013)
